In patent US10364245B2 (CHIESI FARMACEUTICI S.p.A., priority 2017, dated 2019):
Structures can show the parent of a compound that is named as a salt.

Legend:
[1] = tested on: Peripheral Blood Mononuclear Cells (PBMCs), TNFα release; assay: LPS-stimulated PBMC TNFα release assay; type: cell-based; conditions: human PBMC, LPS (10 ng/ml), 18 h, compound 1 h before LPS; read-out: LPS-stimulated PBMC TNFα release inhibition
How it was run: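 TNFα in cell-free supernatant, read on MSD plates, gave % inhibition curves and IC50 (≥3 separate experiments). Healthy-donor PBMCs had 1 h compound exposure at 37 °C in 1% FBS medium, then 18 h stimulation with 10 ng/ml LPS, after a 3 h serum-free rest.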

p38 alpha = target: T1, p38 alpha (Homo sapiens, UniProt Q16539); assay: P38 alpha enzyme inhibition assay (Alphascreen kinase activity assay); type: biochemical; conditions: 100 pM p38 alpha, 2 hours preincubation at 25° C., 250 μM ATP, ATF-2 fusion protein; read-out: p38α inhibition
T1 construct: purchased Invitrogen PV3304
T1 sequence (Q16539 whole entry, the tested form may be a part): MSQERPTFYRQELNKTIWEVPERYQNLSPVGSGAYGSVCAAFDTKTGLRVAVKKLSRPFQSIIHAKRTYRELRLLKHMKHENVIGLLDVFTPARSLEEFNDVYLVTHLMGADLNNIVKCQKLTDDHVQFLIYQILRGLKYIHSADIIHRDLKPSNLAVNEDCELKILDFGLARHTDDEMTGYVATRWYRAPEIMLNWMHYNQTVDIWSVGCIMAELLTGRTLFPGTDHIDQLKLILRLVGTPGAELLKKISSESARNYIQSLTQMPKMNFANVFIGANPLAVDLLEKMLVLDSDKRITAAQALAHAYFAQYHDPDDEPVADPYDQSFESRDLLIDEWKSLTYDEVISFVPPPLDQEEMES
How it was run: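 Phosphorylation of ATF-2 fusion protein (0.3 μg/ml) read by AlphaScreen with anti-phospho-ATF2 antibody after 1 h kinase reaction at 25 °C, initiated by 250 μM ATP. Compounds first incubated 2 h at 25 °C with 100 pM p38 alpha in pH 7.5 HEPES buffer, 1% DMSO. IC50 derived from concentration-response data.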

Row | SMILES | IC50 [1] | IC50 (p38 alpha)
1 | CC(C)(C)c1cc(NC(=O)N[C@H]2CC[C@@H](Oc3ccc4nnc(C(C)(C)C)n4c3)c3ccccc32)nc(C(=O)NCCN(CCO)CCO)n1 [Example 120, N-(2-(bis(2-hydroxyethyl)amino)ethyl)-4-(tert-butyl)-6-(3-((1S,4R)-4-((3-(tert-butyl)-[1,2,4]triazolo[4,3-a]pyridin-6-yl)oxy)-1,2,3,4-tetrahydronaphthalen-1-yl)ureido)pyrimidine-2-carboxamide] | > 5 nM | < 1 nM
2 | COCCN(CCNC(=O)c1nc(NC(=O)N[C@H]2CC[C@@H](Oc3ccc4nnc(C(C)(C)C)n4c3)c3ccccc32)cc(C(C)(C)C)n1)CCOC [Example 92, N-(2-(bis(2-methoxyethyl)amino)-ethyl)-4-(tert-butyl)-6-(3-((1S,4R)-4-((3-(tert-butyl)-[1,2,4]triazolo[4,3-a]pyridin-6-yl)oxy)-1,2,3,4-tetrahydronaphthalen-1-yl)ureido)pyrimidine-2-carboxamide] | > 5 nM | 1 to 10 nM
3 | COC1CN(CCNC(=O)c2nc(NC(=O)N[C@H]3CC[C@@H](Oc4ccc5nnc(C6(C)CC6)n5c4)c4ccccc43)cc(C(C)(C)C)n2)C1 [Example 138, 4-(tert-butyl)-N-(2-(3-methoxyazetidin-1-yl)ethyl)-6-(3-((1S,4R)-4-((3-(1-methylcyclopropyl)-[1,2,4]triazolo[4,3-a]pyridin-6-yl)oxy)-1,2,3,4-tetrahydronaphthalen-1-yl)ureido)pyrimidine-2-carboxamide] | > 5 nM | < 1 nM
4 | CN(CCO)Cc1nc(NC(=O)N[C@H]2CC[C@@H](Oc3ccc4nnc(C(C)(C)C)n4c3)c3ccccc32)cc(C(C)(C)C)n1 [Example 88, 1-(6-(tert-butyl)-2-(((2-hydroxyethyl)(methyl)amino)methyl)pyrimidin-4-yl)-3-((1S,4R)-4-((3-(tert-butyl)-[1,2,4]triazolo[4,3-a]pyridin-6-yl)oxy)-1,2,3,4-tetrahydronaphthalen-1-yl)urea] | > 5 nM | 1 to 10 nM
5 | COC(C)(C)c1nnc2ccc(O[C@@H]3CC[C@H](NC(=O)Nc4cc(C(C)(C)C)nc(C(=O)NCCN(C)CCO)n4)c4ccccc43)cn12 [Example 125, 4-(tert-butyl)-N-(2-((2-hydroxyethyl)(methyl)-amino)ethyl)-6-(3-((1S,4R)-4-((3-(2-methoxypropan-2-yl)-[1,2,4]triazolo[4,3-a]pyridin-6-yl)oxy)-1,2,3,4-tetrahydronaphthalen-1-yl)ureido)pyrimidine-2-carboxamide] | > 5 nM | 1 to 10 nM
6 | COC1CN(CCNC(=O)c2nc(NC(=O)N[C@H]3CC[C@@H](Oc4ccc5nnc(C(C)(C)C)n5c4)c4ccccc43)cc(C(C)(C)C)n2)C1 [Example 104, 4-(tert-butyl)-6-(3-((1S,4R)-4-((3-(tert-butyl)-[1,2,4]triazolo[4,3-a]pyridin-6-yl)oxy)-1,2,3,4-tetrahydronaphthalen-1-yl)ureido)-N-(2-(3-methoxyazetidin-1-yl)ethyl)pyrimidine-2-carboxamide] | < 1 nM | 1 to 10 nM
7 | CSc1nc(NC(=O)N[C@H]2CC[C@@H](Oc3ccc4nnc([C@]5(C)CCCN5C)n4c3)c3ccccc32)cc(C(C)(C)C)n1 [Example 49, 1-(6-(tert-Butyl)-2-(methylthio)pyrimidin-4-yl)-3-((1S,4R)-4-((3-((S)-1,2-dimethylpyrrolidin-2-yl)-[1,2,4]triazolo[4,3-a]pyridine-6-yl)oxy)-1,2,3,4-tetrahydronaphthalen-1-yl)urea] | > 5 nM | 1 to 10 nM
8 | CN(CCO)CCNC(=O)c1nc(NC(=O)N[C@H]2CC[C@@H](Oc3ccc4nnc([C@@H]5COCCN5C)n4c3)c3ccccc32)cc(C(C)(C)C)n1 [Example 215, 4-(tert-Butyl)-N-(2-((2-hydroxyethyl)(methyl)amino)ethyl)-6-(3-((1S,4R)-4-((3-((R)-4-methylmorpholin-3-yl)-[1,2,4]triazolo[4,3-a]pyridin-6-yl)oxy)-1,2,3,4-tetrahydronaphthalen-1-yl)ureido)pyrimidine-2-carboxamide] | > 5 nM | 1 to 10 nM
9 | COCC(C)(C)c1nnc2ccc(O[C@@H]3CC[C@H](NC(=O)Nc4cc(C(C)(C)C)nc(C(=O)NCC5(N(C)C)CC5)n4)c4ccccc43)cn12 [Example 149, 4-(tert-butyl)-N-((1-(dimethylamino)cyclopropyl)methyl)-6-(3-((1S,4R)-4-((3-(l-methoxy-2-methylpropan-2-yl)-[1,2,4]triazolo[4,3-a]pyridin-6-yl)oxy)-1,2,3,4-tetrahydronaphthalen-1-yl)ureido)pyrimidine-2-carboxamide] | 1 to 5 nM | < 1 nM
10 | CC(C)(C)c1cc(NC(=O)N[C@H]2CC[C@@H](Oc3ccc4nnc(C(C)(C)C)n4c3)c3ccccc32)cc(C(=O)NCCN2CCCOCC2)n1 [Example 189, N-(2-(1,4-oxazepan-4-yl)ethyl)-6-(tert-butyl)-4-(3-((1S,4R)-4-((3-(tert-butyl)-[1,2,4]triazolo[4,3-a]pyridin-6-yl)oxy)-1,2,3,4-tetrahydronaphthalen-1-yl)ureido)picolinamide] | 1 to 5 nM | 1 to 10 nM
11 | CN(CCO)CCNC(=O)c1cc(C(C)(C)C)cc(NC(=O)N[C@H]2CC[C@@H](Oc3ccc4nnc(C(C)(C)C)n4c3)c3ccccc32)n1 [Example 208, 4-(tert-butyl)-6-(3-((1S,4R)-4-((3-(tert-butyl)-[1,2,4]triazolo[4,3-a]pyridin-6-yl)oxy)-1,2,3,4-tetrahydronaphthalen-1-yl)ureido)-N-(2-((2-hydroxyethyl)(methyl)-amino)ethyl)picolinamide formate salt] | > 5 nM | < 1 nM
12 | CN(CCO)C(=O)c1nc(NC(=O)N[C@H]2CC[C@@H](Oc3ccc4nnc(C(C)(C)C)n4c3)c3ccccc32)cc(C(C)(C)C)n1 [Example 82, 4-(tert-butyl)-6-(3-((1S,4R)-4-((3-(tert-butyl)-[1,2,4]triazolo[4,3-a]pyridin-6-yl)oxy)-1,2,3,4-tetrahydronaphthalen-1-yl)ureido)-N-(2-hydroxyethyl)-N-methylpyrimidine-2-carboxamide] | > 5 nM | 1 to 10 nM
13 | CCN(CC)c1nnc2ccc(O[C@@H]3CC[C@H](NC(=O)Nc4cc(C(=O)NCCN(C)C)nc(C(C)(C)C)c4)c4ccccc43)cn12 [Example 10, 6-(tert-Butyl)-4-(3-((1S,4R)-4-((3-(diethylamino)-[1,2,4]triazolo[4,3-a]pyridin-6-yl)oxy)-1,2,3,4-tetrahydronaphthalen-1-yl)ureido)-N-(2-(dimethylamino)ethyl)picolinamide] | 1 to 5 nM | < 1 nM
14 | CCN(C)CCNC(=O)c1cc(NC(=O)N[C@H]2CC[C@@H](Oc3ccc4nnc(C(C)(C)C)n4c3)c3ccccc32)cc(C(C)(C)C)n1 [Example 191, 6-(tert-butyl)-4-(3-((1S,4R)-4-((3-(tert-butyl)-[1,2,4]triazolo[4,3-a]pyridin-6-yl)oxy)-1,2,3,4-tetrahydronaphthalen-1-yl)ureido)-N-(2-(ethyl(methyl)amino)-ethyl)picolinamide] | 1 to 5 nM | 1 to 10 nM
